From ChEMBL document CHEMBL3045689, “Synthesis of novel 2-(3-aryl-sydnon-4-ylidene)-5-substituted-[1,3,4]-thiadiazolylamines and [1,3,4]-thiadiazol-2-yl-3-oxo-[1,2,4]-triazoles as antimicrobial agents” (2012)
≈ marks a conversion by molar mass, not a printed value.

Tests used:
Type in all cases: functional
Candida albicans = test: Antifungal activity against Candida albicans after 18 to 24 hr by microbroth dilution method
Aspergillus niger = test: Antifungal activity against Aspergillus niger after 18 to 24 hr by microbroth dilution method
Bacillus cereus = test: Antibacterial activity against Bacillus cereus after 18 to 24 hr by microbroth dilution method
Escherichia coli = test: Antibacterial activity against Escherichia coli after 18 to 24 hr by microbroth dilution method

SMILES	MIC (Candida albicans) [µg/mL]	MIC (Aspergillus niger) [µg/mL]	MIC (Bacillus cereus) [µg/mL]	MIC (Escherichia coli) [µg/mL]
Cc1nn(-c2ccc(Cl)cc2)c(=O)n1-c1nnc(-c2ccccc2)s1	7.8 (≈ 21.1 µM)	15.6 (≈ 42.2 µM)	15.6 (≈ 42.2 µM)	31.2 (≈ 84.5 µM)
Cc1nnc(/N=C/c2c([O-])on[n+]2-c2ccccc2)s1	31.2 (≈ 109 µM)	125 (≈ 435 µM)	250 (≈ 870 µM)	62.5 (≈ 218 µM)
COc1ccc(-n2nc(C)n(-c3nnc(C)s3)c2=O)cc1	31.2 (≈ 103 µM)	7.8 (≈ 25.7 µM)	31.5 (≈ 104 µM)	15.6 (≈ 51.4 µM)
Cc1nnc(-n2c(C)nn(-c3ccccc3)c2=O)s1	31.2 (≈ 114 µM)	62.5 (≈ 229 µM)	125 (≈ 457 µM)	62.5 (≈ 229 µM)
COc1ccc(-[n+]2noc([O-])c2/C=N/c2nnc(-c3ccccc3)s2)cc1	62.5 (≈ 165 µM)	62.5 (≈ 165 µM)	62.5 (≈ 165 µM)	62.5 (≈ 165 µM)
[O-]c1on[n+](-c2ccccc2)c1/C=N/c1nnc(-c2ccccc2)s1	31.2 (≈ 89.4 µM)	125 (≈ 358 µM)	125 (≈ 358 µM)	31.2 (≈ 89.4 µM)
Cc1ccc(-[n+]2noc([O-])c2/C=N/c2nnc(C)s2)cc1	31.2 (≈ 104 µM)	125 (≈ 415 µM)	125 (≈ 415 µM)	62.5 (≈ 207 µM)
Cc1nnc(/N=C/c2c([O-])on[n+]2-c2ccc(Cl)cc2)s1	7.8 (≈ 24.2 µM)	125 (≈ 389 µM)	62.5 (≈ 194 µM)	62.5 (≈ 194 µM)
Cc1ccc(-[n+]2noc([O-])c2/C=N/c2nnc(-c3ccccc3)s2)cc1	3.9 (≈ 10.7 µM)	125 (≈ 344 µM)	125 (≈ 344 µM)	62.5 (≈ 172 µM)
COc1ccc(-n2nc(C)n(-c3nnc(-c4ccccc4)s3)c2=O)cc1	31.2 (≈ 85.5 µM)	62.5 (≈ 171 µM)	125 (≈ 342 µM)	15.6 (≈ 42.7 µM)
Cc1ccc(-n2nc(C)n(-c3nnc(C)s3)c2=O)cc1	62.5 (≈ 218 µM)	62.5 (≈ 218 µM)	62.5 (≈ 218 µM)	62.5 (≈ 218 µM)
Cc1ccc(-n2nc(C)n(-c3nnc(-c4ccccc4)s3)c2=O)cc1	125 (≈ 358 µM)	62.5 (≈ 179 µM)	62.5 (≈ 179 µM)	15.6 (≈ 44.6 µM)
CC(=O)N1CCN(c2ccc(OCC3COC(Cn4ccnc4)(c4ccc(Cl)cc4Cl)O3)cc2)CC1 (stereo not drawn) [KETOCONAZOLE]	0.97 (≈ 1.83 µM)	0.97 (≈ 1.83 µM)		
O=C(N[C@H](CO)[C@H](O)c1ccc([N+](=O)[O-])cc1)C(Cl)Cl [CHLORAMPHENICOL]			12.5 (≈ 38.7 µM)	1.95 (≈ 6.03 µM)
Cc1nnc(-n2c(C)nn(-c3ccc(Cl)cc3)c2=O)s1	7.8 (≈ 25.3 µM)	7.8 (≈ 25.3 µM)	15.6 (≈ 50.7 µM)	15.6 (≈ 50.7 µM)
COc1ccc(-[n+]2noc([O-])c2/C=N/c2nnc(C)s2)cc1	7.8 (≈ 24.6 µM)	125 (≈ 394 µM)	125 (≈ 394 µM)	15.6 (≈ 49.2 µM)
[O-]c1on[n+](-c2ccc(Cl)cc2)c1/C=N/c1nnc(-c2ccccc2)s1	7.8 (≈ 20.3 µM)	31.2 (≈ 81.4 µM)	62.5 (≈ 163 µM)	31.2 (≈ 81.4 µM)
Cc1nn(-c2ccccc2)c(=O)n1-c1nnc(-c2ccccc2)s1	31.2 (≈ 93.2 µM)	62.5 (≈ 186 µM)	125 (≈ 373 µM)	31.2 (≈ 93.2 µM)
